Measurements reported in patent US9315491B2 (DEVELOPMENT CENTER FOR BIOTECHNOLOGY, priority 2009, dated 2016).

Biological target: recombinant mTOR (Homo sapiens (Human), UniProt P42345)
Assay: mTOR kinase assay (33P incorporation into 4EBP1)
Format: biochemical
Conditions: compound at 10 μM, 10 μM ATP
Description: The activity of the compound against mTOR was examined by measuring the incorporation of ^33P from [γ-^33P]-ATP into 4EBP1. His-tagged, recombinant human 4EBP1 was expressed in E. coli, purified by nickel-nitrilotriacetic acid (Ni-NTA) resins, and stored at −80° C. Phosphorylation of 4EBP1 by mTOR was assayed in the presence or absence of the compound and performed in a final volume of 25 μl reaction buffer containing 300 ng 4EBP1, 50 ng recombinant mTOR (Invitrogen), 50 mM HEPES (pH 7.5), 1 mM EGTA, 0.01% Polysorbate 20, 10 mM MnCl2, 2.5 mM DTT, 10 μM ATP, and 0.5 μCi [γ-33P]-ATP (PerkinElmir) for 30 min at 30° C. The reactions were terminated by adding 3% phosphoric acid. The ^33P labeled 4EBP1 was transferred onto UniFilter-96 GF/B plate (PerkinElmer) and quantified by Top Count Microplate Scintillation Counter (PerkinElmer). For primary screening of kinase activity inhibition, each test compound was evaluated at […] in duplicate. […] The IC50 values of the compounds were determined after carrying out assays at eight serially diluted concentrations of each compound in duplicate. The results were analyzed using linear regression software (GraphPad Prism 5; GraphPad Software Inc.).
IC50 value is defined as the concentration of the test compound which achieves a half-maximal inhibition of the kinase activity.

Sequence of recombinant mTOR (P42345 1360-2549): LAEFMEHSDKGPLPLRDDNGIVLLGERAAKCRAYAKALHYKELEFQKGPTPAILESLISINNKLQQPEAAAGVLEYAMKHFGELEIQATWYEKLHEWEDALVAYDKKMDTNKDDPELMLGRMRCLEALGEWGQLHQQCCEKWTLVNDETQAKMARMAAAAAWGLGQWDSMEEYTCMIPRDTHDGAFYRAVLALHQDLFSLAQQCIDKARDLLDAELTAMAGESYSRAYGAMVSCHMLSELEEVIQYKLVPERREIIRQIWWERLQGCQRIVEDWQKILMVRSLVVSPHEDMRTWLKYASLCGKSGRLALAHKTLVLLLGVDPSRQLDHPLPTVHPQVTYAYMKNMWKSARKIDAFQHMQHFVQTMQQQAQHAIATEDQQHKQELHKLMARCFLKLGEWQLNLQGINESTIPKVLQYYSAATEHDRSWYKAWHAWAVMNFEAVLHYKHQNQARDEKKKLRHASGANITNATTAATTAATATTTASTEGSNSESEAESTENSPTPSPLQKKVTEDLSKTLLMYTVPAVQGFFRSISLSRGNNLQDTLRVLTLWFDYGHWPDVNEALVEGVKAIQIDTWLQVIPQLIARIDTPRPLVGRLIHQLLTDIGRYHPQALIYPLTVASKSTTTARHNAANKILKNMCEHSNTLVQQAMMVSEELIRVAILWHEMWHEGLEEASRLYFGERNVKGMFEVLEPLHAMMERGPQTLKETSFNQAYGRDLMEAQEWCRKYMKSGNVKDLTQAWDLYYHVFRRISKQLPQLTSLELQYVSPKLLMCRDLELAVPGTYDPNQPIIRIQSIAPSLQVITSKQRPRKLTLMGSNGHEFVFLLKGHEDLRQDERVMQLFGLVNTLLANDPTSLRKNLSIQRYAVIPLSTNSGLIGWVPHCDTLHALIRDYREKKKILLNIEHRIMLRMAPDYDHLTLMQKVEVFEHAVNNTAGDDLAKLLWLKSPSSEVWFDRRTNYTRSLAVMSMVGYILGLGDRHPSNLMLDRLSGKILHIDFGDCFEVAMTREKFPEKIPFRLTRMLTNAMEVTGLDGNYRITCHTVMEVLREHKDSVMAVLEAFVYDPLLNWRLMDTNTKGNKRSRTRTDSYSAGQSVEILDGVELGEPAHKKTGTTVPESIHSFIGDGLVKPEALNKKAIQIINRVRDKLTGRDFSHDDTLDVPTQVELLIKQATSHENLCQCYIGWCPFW

inhibition at 10 µM [%] | SMILES
89 | COc1cnc(-c2ccc(NC(N)=O)cc2)nc1N1CCOCC1 [MTR-0336, [4-(5-Methoxy-4-morpholin-4-yl-pyrimidin-2-yl)-phenyl]-urea]
95 | CSc1c(-c2ccncc2)nc(-c2ccc(NC(=O)NC(C)C)cc2)nc1N1CCOCC1 [MTR-0479, 1-Isopropyl-3-[4-(5-methylsulfanyl-4-morpholin-4-yl-6-pyridin-4-yl-pyrimidin-2-yl)-phenyl]-urea]
94 | COc1cnc(-c2ccc(NC(=O)Nc3ccc(N4CCN(C)CC4)nc3)cc2)nc1N1CCOCC1 [MTR-0338, 1-[4-(5-Methoxy-4-morpholin-4-yl-pyrimidin-2-yl)-phenyl]-3-[6-(4-methyl-piperazin-1-yl)-pyridin-3-yl]-urea]
88 | COc1cnc(-c2ccc(NC(=O)Nc3ccc(N4CCOCC4=O)cc3)cc2)nc1-c1ccncc1 [MTR-0474, 1-[4-(5-Methoxy-4-pyridin-4-yl-pyrimidin-2-yl)-phenyl]-3-[4-(3-oxo-morpholin-4-yl)-phenyl]-urea]
88 | CCOC(=O)c1nc(-c2cnc(NC(=O)Nc3ccc(N4CCOCC4=O)cc3)nc2)nc(N2CCOCC2)c1OCC [MTR-0403, 5-Ethoxy-6-morpholin-4-yl-2′-{3-[4-(3-oxo-morpholin-4-yl)-phenyl]-ureido}-[2,5′]bipyrimidinyl-4-carboxylic acid ethyl ester]
102 | CCOc1c(-c2cccnc2)nc(-c2ccc(NC(=O)Nc3ccncc3)cc2)nc1N1CCOCC1 [MTR-0490, 1-[4-(5-Ethoxy-4-morpholin-4-yl-6-pyridin-3-yl-pyrimidin-2-yl)-phenyl]-3-pyridin-4-yl-urea]
81 | CCOc1cnc(-c2ccc(NC(=O)Nc3ccc(N4CCSCC4)cc3)cc2)nc1N1CCOCC1 [MTR-0324, 1-[4-(5-Ethoxy-4-morpholin-4-yl-pyrimidin-2-yl)-phenyl]-3-(4-thiomorpholin-4-yl-phenyl)-urea]
85 | CCOc1cnc(-c2ccc(NC(=O)Nc3ccc(C(N)=O)cc3)cc2)nc1-c1ccncc1 [MTR-0400, 4-{3-[4-(5-Ethoxy-4-pyridin-4-yl-pyrimidin-2-yl)-phenyl]-ureido}-benzamide]
95 | CCOc1c(-c2cccnc2)nc(-c2ccc(NC(=O)Nc3ccc(N4CCOCC4=O)cc3)cc2)nc1N1CCOCC1 [MTR-0496, 1-[4-(5-Ethoxy-4-morpholin-4-yl-6-pyridin-3-yl-pyrimidin-2-yl)-phenyl]-3-[4-(3-oxo-morpholin-4-yl)-phenyl]-urea]
90 | CSc1c(Cl)nc(-c2ccc(NC(=O)Nc3ccc(S(=O)(=O)N4CCOCC4)cc3)cc2)nc1N1CCOCC1 [MTR-0435, 1-[4-(4-Chloro-5-methylsulfanyl-6-morpholin-4-yl-pyrimidin-2-yl)-phenyl]-3-[4-(morpholine-4-sulfonyl)-phenyl]-urea]
82 | CCOC(=O)c1nc(-c2ccc(NC(=O)Nc3ccc(N4CCN(S(C)(=O)=O)CC4)cc3)cc2)nc(N2CCOCC2)c1OCC [MTR-0419, 5-Ethoxy-2-(4-{3-[4-(4-methanesulfonyl-piperazin-1-yl)-phenyl]-ureido}-phenyl)-6-morpholin-4-yl-pyrimidine-4-carboxylic acid ethyl ester]
86 | CSc1cnc(-c2ccc(NC(=O)Nc3ccc(N4CCN(S(C)(=O)=O)CC4)cc3)cc2)nc1N1CCOCC1 [MTR-0430, 1-[4-(4-Methanesulfonyl-piperazin-1-yl)-phenyl]-3-[4-(5-methylsulfanyl-4-morpholin-4-yl-pyrimidin-2-yl)-phenyl]-urea]
100 | CSc1c(-c2ccncc2)nc(-c2ccc(NC(=O)Nc3ccon3)cc2)nc1N1CCOCC1 [MTR-0485, 1-Isoxazol-3-yl-3-[4-(5-methylsulfanyl-4-morpholin-4-yl-6-pyridin-4-yl-pyrimidin-2-yl)-phenyl]-urea]
90 | CSc1c(Cl)nc(-c2ccc(NC(=S)Nc3ccc(N4CCOCC4=O)cc3)cc2)nc1N1CCOCC1 [MTR-0304, 1-[4-(4-Chloro-5-methylsulfanyl-6-morpholin-4-yl-pyrimidin-2-yl)-phenyl]-3-[4-(3-oxo-morpholin-4-yl)-phenyl]-thiourea]
92 | CS(=O)(=O)c1cnc(-c2ccc(NC(=O)Nc3ccc(N4CCOCC4=O)cc3)cc2)nc1N1CCOCC1 [MTR-0381, 1-[4-(5-Methanesulfonyl-4-morpholin-4-yl-pyrimidin-2-yl)-phenyl]-3-[4-(3-oxo-morpholin-4-yl)-phenyl]-urea]

Second part, the compound before the results:

SMILES | inhibition at 10 µM [%]
CCOC(=O)c1nc(-c2ccc(NC(=O)Nc3cccc(NC(=O)C(F)(F)F)c3)cc2)nc(N2CCOCC2)c1OCC [MTR-0252, 5-Ethoxy-6-morpholin-4-yl-2-(4-{3-[3-(2,2,2-trifluoro-acetylamino)-phenyl]-ureido}-phenyl)-pyrimidine-4-carboxylic acid ethyl ester] | 82
CCOc1c(CN2CCCCC2)nc(-c2ccc(NC(=O)Nc3ccccc3)cc2)nc1N1CCOCC1 [MTR-0193, 1-[4-(5-Ethoxy-4-morpholin-4-yl-6-piperidin-1-ylmethyl-pyrimidin-2-yl)-phenyl]-3-phenyl-urea] | 81
CSc1cnc(-c2ccc(NC(N)=O)cc2)nc1N1CCOCC1 [MTR-0286, [4-(5-Methylsulfanyl-4-morpholin-4-yl-pyrimidin-2-yl)-phenyl]-urea] | 93
CSc1c(Cl)nc(-c2ccc(NC(=O)Nc3ccc(Br)nc3)cc2)nc1N1CCOCC1 [MTR-0291, 1-(6-Bromo-pyridin-3-yl)-3-[4-(4-chloro-5-methylsulfanyl-6-morpholin-4-yl-pyrimidin-2-yl)-phenyl]-urea] | 89
CCOC(=O)c1nc(-c2ccc(Nc3nc4ccccc4[nH]3)cc2)nc(N2CCOCC2)c1OCC [MTR-0243, 2-[4-(1H-Benzoimidazol-2-ylamino)-phenyl]-5-ethoxy-6-morpholin-4-yl-pyrimidine-4-carboxylic acid ethyl ester] | 92
CCOc1c(C(=O)N2CCN(C)CC2)nc(-c2ccc(NC(=O)Nc3ccccc3)cc2)nc1N1CCOCC1 [MTR-0186, 1-{4-[5-Ethoxy-4-(4-methyl-piperazine-1-carbonyl)-6-morpholin-4-yl-pyrimidin-2-yl]-phenyl}-3-phenyl-urea] | 96
CCOC(=O)c1nc(-c2ccc(NC(=S)Nc3ccccc3)cc2)nc(N2CCOCC2)c1OCC [MTR-0102, 5-Ethoxy-6-morpholin-4-yl-2-[4-(3-phenyl-thioureido)-phenyl]-pyrimidine-4-carboxylic acid ethyl ester] | 81
CCOC(=O)c1ccc(NC(=O)Nc2ccc(-c3ncc(SC)c(N4CCOCC4)n3)cc2)cc1 [MTR-0264, 4-{3-[4-(5-Methylsulfanyl-4-morpholin-4-yl-pyrimidin-2-yl)-phenyl]-ureido}-benzoic acid ethyl ester] | 86
CCOC(=O)c1nc(-c2ccc(NC(=O)Nc3ccc(N4CCN(C)CC4)nc3)cc2)nc(N2CCOCC2)c1OCC [MTR-0275, 5-Ethoxy-2-(4-{3-[6-(4-methyl-piperazin-1-yl)-pyridin-3-yl]-ureido}-phenyl)-6-morpholin-4-yl-pyrimidine-4-carboxylic acid ethyl ester] | 97
CCNC(=O)Nc1ccc(-c2ncc(OC)c(N3CCOCC3)n2)cc1 [MTR-0129, 1-Ethyl-3-[4-(5-methoxy-4-morpholin-4-yl-pyrimidin-2-yl)-phenyl]-urea] | 96
CNC(=O)Nc1ccc(-c2ncc(SC)c(N3CCOCC3)n2)cc1 [MTR-0210, 1-Methyl-3-[4-(5-methylsulfanyl-4-morpholin-4-yl-pyrimidin-2-yl)-phenyl]-urea] | 96
CSc1c(Cl)nc(-c2ccc(NC(=O)Nc3nccs3)cc2)nc1N1CCOCC1 [MTR-0200, 1-[4-(4-Chloro-5-methylsulfanyl-6-morpholin-4-yl-pyrimidin-2-yl)-phenyl]-3-thiazol-2-yl-urea] | 84
CSc1c(Cl)nc(-c2ccc(NC(=O)Nc3ccc(N4CCOCC4=O)cc3)cc2)nc1N1CCOCC1 [MTR-0213, 1-[4-(4-Chloro-5-methylsulfanyl-6-morpholin-4-yl-pyrimidin-2-yl)-phenyl]-3-[4-(3-oxo-morpholin-4-yl)-phenyl]-urea] | 84
CSc1c(Cl)nc(-c2ccc(NC(=S)Nc3ccc(C(=O)O)cc3)cc2)nc1N1CCOCC1 [MTR-0293, 4-{3-[4-(4-Chloro-5-methylsulfanyl-6-morpholin-4-yl-pyrimidin-2-yl)-phenyl]-thioureido}-benzoic acid] | 83
CCOC(=O)c1nc(-c2ccc(NC(=O)Nc3cccc4[nH]ncc34)cc2)nc(N2CCOCC2)c1OCC [MTR-0297, 5-Ethoxy-2-{4-[3-(1H-indazol-4-yl)-ureido]-phenyl}-6-morpholin-4-yl-pyrimidine-4-carboxylic acid ethyl ester] | 83
CCOc1c(C(=O)O)nc(-c2ccc(NC(=O)Nc3cccnc3)cc2)nc1N1CCOCC1 [MTR-0245, 5-Ethoxy-6-morpholin-4-yl-2-[4-(3-pyridin-3-yl-ureido)-phenyl]-pyrimidine-4-carboxylic acid] | 94
CSc1c(Cl)nc(-c2ccc(NC(=O)Nc3ccc4c(c3)OCO4)cc2)nc1N1CCOCC1 [MTR-0256, 1-Benzo[1,3]dioxol-5-yl-3-[4-(4-chloro-5-methylsulfanyl-6-morpholin-4-yl-pyrimidin-2-yl)-phenyl]-urea] | 90
